Legend:
UWB1.289 cells = assay: Cell proliferation inhibitory activity in BRCA1/2-mutant or HRD-positive cells (Cell Titer-Glo); assay type: cell-based; conditions: UWB1289; UWB1.289 cells, 144 hours after compound treatment, Cell Titer-Glo, 1.5 nM to 10 µM; read-out: GI50 UWB1.289 BRCA1 mut
Procedure, shortened: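 GI50 from CellTiter-Glo luminescence after 144 h compound exposure at 37 °C. Cells seeded at 1,000 per well in MEBM/RPMI1640 mix 16–24 h beforehand; […] from 10 µM down to 1.5 nM final (3-fold steps).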

recombinant USP1 protein = target: T1, recombinant USP1 protein (Homo sapiens, UniProt O94782, DEL125-138/DEL229-408/DEL608-737); assay: Binding affinity to recombinant USP1 protein by differential scanning fluorimetry; conditions: compound 100 µM; 0.03 mg/mL USP1 (Δ1-66, Δ125-138, Δ229-408, Δ608-737); Tm with compound minus Tm with DMSO; read-out: ΔTm (°C)
T1 sequence (O94782 with tags, fused parts or gaps DEL125-138/DEL229-408/DEL608-737): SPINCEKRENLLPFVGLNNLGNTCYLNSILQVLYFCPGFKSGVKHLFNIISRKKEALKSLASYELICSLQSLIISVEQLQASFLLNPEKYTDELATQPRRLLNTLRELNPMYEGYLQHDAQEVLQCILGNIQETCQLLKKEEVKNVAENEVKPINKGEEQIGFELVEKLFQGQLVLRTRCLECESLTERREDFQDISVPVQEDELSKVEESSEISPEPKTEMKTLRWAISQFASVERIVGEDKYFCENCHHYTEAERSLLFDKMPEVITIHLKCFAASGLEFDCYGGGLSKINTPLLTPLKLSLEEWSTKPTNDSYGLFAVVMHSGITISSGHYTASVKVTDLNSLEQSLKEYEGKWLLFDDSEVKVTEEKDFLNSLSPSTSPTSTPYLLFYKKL
Procedure, shortened: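 Thermal shift readout: ΔTm is the compound-well melting temperature less the DMSO-well value, measured by real-time PCR. Compounds tested at 100 µM final against 0.03 mg/mL truncated USP1 (Δ1-66, Δ125-138, Δ229-408, Δ608-737) in pH 8.0 Tris buffer containing 150 mM NaCl, 2% glycerol, 1 mM DTT.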

ΔTm at 100 µM (recombinant USP1 protein)	SMILES	GI50 (UWB1.289 cells)
> 5 °C	COc1ncnc(C2CC2)c1-c1ncc2cc(C(N)=O)n(Cc3ccc(-n4nc(C(F)(F)F)cc4C)cc3)c2n1 [Example 177, 2-(4-cyclopropyl-6-methoxypyrimidin-5-yl)-7-(4-(5-methyl-3-(trifluoromethyl)-1H-pyrazol-1-yl)benzyl)-7H-pyrrolo[2,3-d]pyrimidine-6-carboxamide]	< 0.1 µM
> 5 °C	CNC(=O)c1cc2cnc(-c3cccnc3OC(F)F)nc2n1Cc1ccc(-c2nc(C(F)(F)F)cn2C(C)C)cc1 [Example 178, 2-(2-(difluoromethoxy)pyridin-3-yl)-7-(4-(1-isopropyl-4-(trifluoromethyl)-1H-imidazol-2-yl)benzyl)-N-methyl-7H-pyrrolo[2,3-d]pyrimidine-6-carboxamide]	< 0.1 µM
> 5 °C	COc1ncnc(C2CC2)c1-c1ncc2cc(C(=O)N3CC(N(C)C)C3)n(Cc3ccc(-c4nc(C(F)(F)F)cn4C)cc3)c2n1 [Example 179, (2-(4-cyclopropyl-6-methoxypyrimid in-5-yl)-7-(4-(1-methyl-4-(trifluoromethyl)-1H-imidazol-2-yl)benzyl)-7H-pyrrolo[2,3-d]pyrimidin-6-yl) (3-(dimethylamino)azetidin-1-yl)methanone]	< 0.1 µM
> 5 °C	CNC(=O)c1cc2cnc(-c3ccccc3C(C)C)nc2n1Cc1ccc(-c2nc(C(F)(F)F)cn2C)cc1 [Example 180, 2-(2-isopropylphenyl)-N-methyl-7-(4-(1-methyl-4-(trifluoromethyl)-1H-imidazol-2-yl)benzyl)-7H-pyrrolo[2,3-d]pyrimidine-6-carboxamide]	< 0.1 µM
> 5 °C	COc1ncnc(C2CC2)c1-c1ncc2cc(C(=O)N[C@H]3CN(C)C[C@@H]3F)n(Cc3ccc(-c4nc(C(F)(F)F)cn4C)cc3)c2n1 [Example 181, 2-(4-cyclopropyl-6-methoxypyrimidin-5-yl)-N-((3S,4S)-4-fluoro-1-methylpyrrolidin-3-yl)-7-(4-(1-methyl-4-(trifluoromethyl)-1H-imidazol-2-yl)benzyl)-7H-pyrrolo[2,3-d]pyrimidine-6-carboxamide]	< 0.1 µM
> 5 °C	COc1ncnc(C2CC2)c1-c1ncc2cc(C(=O)N[C@H]3CN(C)C[C@H]3F)n(Cc3ccc(-c4nc(C(F)(F)F)cn4C)cc3)c2n1 [Example 182, 2-(4-cyclopropyl-6-methoxypyrimidin-5-yl)-N-((3S,4R)-4-fluoro-1-methylpyrrolidin-3-yl)-7-(4-(1-methyl-4-(trifluoromethyl)-1H-imidazol-2-yl)benzyl)-7H-pyrrolo[2,3-d]pyrimidine-6-carboxamide]	< 0.1 µM
> 5 °C	[2H]C([2H])([2H])n1cc(C(F)(F)F)nc1-c1ccc(Cn2c(C(=O)NC)cc3cnc(-c4c(OC)ncnc4C4CC4)nc32)cc1 [Example 183, 2-(4-cyclopropyl-6-methoxypyrimidin-5-yl)-N-methyl-7-(4-(1-(methyl-d3)-4-(trifluoromethyl)-1H-imidazol-2-yl)benzyl)-7H-pyrrolo[2,3-d]pyrimidine-6-carboxamide]	< 0.1 µM
> 5 °C	CNC(=O)c1cc2cnc(-c3c(OC4CC4)ncnc3C3CC3)nc2n1Cc1ccc(-c2nc(C(F)(F)F)cn2C)cc1 [Example 184, 2-(4-cyclopropyl-6-cyclopropoxypyrimidin-5-yl)-N-methyl-7-(4-(1-methyl-4-(trifluoromethyl)-1H-imidazol-2-yl)benzyl)-7H-pyrrolo[2,3-d]pyrimidine-6-carboxamide]	< 0.1 µM
> 5 °C	COc1ncnc(C2CC2)c1-c1ncc2cc(C(=O)NC3CCN(C)CC3(F)F)n(Cc3ccc(-c4nc(C(F)(F)F)cn4C)cc3)c2n1 (centres unmarked) [Example 185, 2-(4-cyclopropyl-6-methoxypyrimidin-5-yl)-N-(3,3-difluoro-1-methylpiperidin-4-yl)-7-(4-(1-methyl-4-(trifluoromethyl)-1H-imidazol-2-yl)benzyl)-7H-pyrrolo[2,3-d]pyrimidine-6-carboxamide]	< 0.1 µM
> 5 °C	CNC(=O)c1cc2cnc(-c3c(Cl)cnn3C)nc2n1Cc1ccc(-c2nc(C(F)(F)F)cn2C)cc1 [Example 186, 2-(4-chloro-1-methyl-1H-pyrazol-5-yl)-N-methyl-7-(4-(1-methyl-4-(trifluoromethyl)-1H-imidazol-2-yl)benzyl)-7H-pyrrolo[2,3-d]pyrimidine-6-carboxamide]	< 0.1 µM
> 5 °C	CNC(=O)c1cc2cnc(-c3c(OC)ncnc3C3CC3)nc2n1Cc1ccc(-c2nc(C(F)(F)F)cn2[C@@H]2CCN(C)C[C@H]2F)cc1 [Example 187, 2-(4-cyclopropyl-6-methoxypyrimidin-5-yl)-7-(4-(1-((3R,4R)-3-fluoro-1-methylpiperidin-4-yl)-4-(trifluoromethyl)-1H-imidazol-2-yl)benzyl)-N-methyl-7H-pyrrolo[2,3-d]pyrimidine-6-carboxamide]	< 0.1 µM
> 5 °C	CNC(=O)c1cc2cnc(-c3c(OC)ncnc3C3CC3)nc2n1Cc1ccc(-n2nc(C(C)(C)O)cc2C)cc1 [Example 188, 2-(4-cyclopropyl-6-methoxypyrimidin-5-yl)-7-(4-(3-(2-hydroxypropan-2-yl)-5-methyl-1H-pyrazol-1-yl)benzyl)-N-methyl-7H-pyrrolo[2,3-d]pyrimidine-6-carboxamide]	0.1 to 0.5 µM
> 5 °C	CNC(=O)c1cc2cnc(-c3c(OC)ncnc3C3CC3)nc2n1Cc1ccc(-c2nc(C(F)(F)F)cn2[C@H]2CCN(C)C[C@@H]2F)cc1 [Example 189, 2-(4-cyclopropyl-6-methoxypyrimidin-5-yl)-7-(4-(1-((3S,4S)-3-fluoro-1-methylpiperidin-4-yl)-4-(trifluoromethyl)-1H-imidazol-2-yl)benzyl) -N-methyl-7H-pyrrolo [2,3-d]pyrimidine-6-carboxamide]	< 0.1 µM
> 5 °C	COc1ncnc(C2CC2)c1-c1ncc2cc(C(=O)NC[C@@H](O)C(C)C)n(Cc3ccc(-c4nc(C(F)(F)F)cn4C)cc3)c2n1 [Example 190, (S)-2-(4-cyclopropyl-6-methoxypyrimidin-5-yl)-N-(2-hydroxy-3-methylbutyl)-7-(4-(1-methyl-4-(trifluoromethyl)-1H-imidazol-2-yl)benzyl)-7H-pyrrolo[2,3-d]pyrimidine-6-carboxamide]	< 0.1 µM
> 5 °C	COc1ncnc(C2CC2)c1-c1ncc2cc(C(=O)N[C@@H](C)CCO)n(Cc3ccc(-c4nc(C(F)(F)F)cn4C)cc3)c2n1 [Example 191, (S)-2-(4-cyclopropyl-6-methoxypyrimidin-5-yl)-N-(4-hydroxybutan-2-yl)-7-(4-(1-methyl-4-(trifluoromethyl)-1H-imidazol-2-yl)benzyl)-7H-pyrrolo[2,3-d]pyrimidine-6-carboxamide]	< 0.1 µM
< 5 °C	CNC(=O)c1cc2cnc(-c3cccc4c3N(C)CC4)nc2n1Cc1ccc(-c2nc(C(F)(F)F)cn2C)cc1 [Example 193, N-methyl-7-(4-(1-methyl-4-(trifluoromethyl)-1H-imidazol-2-yl)benzyl)-2-(1-methylindolin-7-yl)-7H-pyrrolo[2,3-d]pyrimidine-6-carboxamide]	< 0.1 µM
> 5 °C	CNC(=O)c1cc2cnc(-c3c(OC)ncnc3C3CC3)nc2n1Cc1ccc(-c2nc(C(F)(F)F)cn2C)c(OC)c1 [Example 194, 2-(4-cyclopropyl-6-methoxypyrimidin-5-yl)-7-(3-methoxy-4-(1-methyl-4-(trifluoromethyl)-1H-imidazol-2-yl)benzyl)-N-methyl-7H-pyrrolo[2,3-d]pyrimidine-6-carboxamide]	0.1 to 0.5 µM
> 5 °C	[2H]C([2H])([2H])N(C(=O)c1cc2cnc(-c3c(OC)ncnc3C3CC3)nc2n1Cc1ccc(-c2nc(C(F)(F)F)cn2C)cc1)C([2H])([2H])[2H] [Example 195, 2-(4-cyclopropyl-6-methoxypyrimidin-5-yl)-N,N-bis(methyl-d3)-7-(4-(1-methyl-4-(trifluoromethyl)-1H-imidazol-2-yl)benzyl)-7H-pyrrolo[2,3-d]pyrimidine-6-carboxamide]	0.1 to 0.5 µM
> 5 °C	COc1ncnc(C2CC2)c1-c1ncc2cc(C(=O)N3CC(O)C3)n(Cc3ccc(-c4nc(C(F)(F)F)cn4C)cc3)c2n1 [Example 196, (2-(4-cyclopropyl-6-methoxypyrimid in-5-yl)-7-(4-(1-methyl-4-(trifluoromethyl)-1H-imidazol-2-yl)benzyl)-7H-pyrrolo[2,3-d]pyrimidin-6-yl) (3-hydroxyazetidi n-1-yl)methanone]	< 0.1 µM
